Target: Neuraminidase (Influenza A virus (A/Memphis/1/1971(H3N2)), UniProt P03471)
Assay: Inhibition of influenza A virus H3N2 clinical isolate neuraminidase using NA-Fluor MUNANA as substrate preincubated for 20 to 30 mins followed by substrate addition and measured for 60 mins by fluorescence assay

Sequence of Neuraminidase (Influenza A virus (A/Memphis/1/1971(H3N2)), UniProt P03471) (P03471 whole entry): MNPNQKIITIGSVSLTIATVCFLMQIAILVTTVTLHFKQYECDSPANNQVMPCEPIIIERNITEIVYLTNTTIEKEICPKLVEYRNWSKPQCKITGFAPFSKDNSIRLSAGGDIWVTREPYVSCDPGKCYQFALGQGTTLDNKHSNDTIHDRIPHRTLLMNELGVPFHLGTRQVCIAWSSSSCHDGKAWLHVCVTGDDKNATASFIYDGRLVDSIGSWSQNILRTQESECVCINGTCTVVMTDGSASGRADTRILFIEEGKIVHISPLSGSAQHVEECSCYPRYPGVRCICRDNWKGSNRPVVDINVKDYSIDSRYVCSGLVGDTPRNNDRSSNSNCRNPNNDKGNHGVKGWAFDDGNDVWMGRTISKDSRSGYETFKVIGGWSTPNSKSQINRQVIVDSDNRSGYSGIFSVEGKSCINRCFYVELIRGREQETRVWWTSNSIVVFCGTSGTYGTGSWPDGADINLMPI

SMILES | IC50 [nM]
CCC(CC)O[C@@H]1C=C(C(=O)O)C[C@H](NCc2noc(-c3ccco3)n2)[C@H]1NC(C)=O | 1.92
CCC(CC)O[C@@H]1C=C(C(=O)O)C[C@H](NCc2ccc(-c3c(C)noc3C)o2)[C@H]1NC(C)=O | 1.63

From ChEMBL document CHEMBL4359912, “Novel N-Substituted oseltamivir derivatives as potent influenza neuraminidase inhibitors: Design, synthesis, biological evaluation, ADME prediction and molecular docking studies” (Eur J Med Chem, 2019)
